PMC11822212, “High-throughput screening identifies Aurora kinase B as a critical therapeutic target for Merkel cell carcinoma” (Nature Communications, 2025)
Where two headings read alike, the source gives them in different places.

Key:
MCC13 cells (VN-MCC) = test: qHTS cell viability (CellTiter-Glo, 72 h; primary and follow-up small molecule screen); format: cell-based, human
MCC26 cells (VN-MCC) = test: as above; format: cell-based, human
UISO cells (VN-MCC) = test: as above; format: cell-based, human
WAGA cells (VP-MCC) = test: as above; format: cell-based, human
MKL-1 cells (VP-MCC) = test: as above; format: cell-based, human
MKL-2 cells (VP-MCC) = test: as above; format: cell-based, human
HACAT cells = test: qHTS cell viability (CellTiter-Glo, 72 h; primary screen), control cell line; format: cell-based, human
HEK293T cells = test: as above; format: cell-based, human
NIH-3T3 cells = test: as above; format: cell-based, mouse
CRL-7250 cells = test: as above; format: cell-based
[1] = tested on: MCC cell lines (WAGA, MKL-1, MKL-2, MCC13, MCC26, UISO); test: qHTS cell viability, all six MCC cell lines as a group (mean AUC, MCC.avg); format: cell-based, human
[2] = tested on: VP-MCC cell lines (WAGA, MKL-1, MKL-2); test: qHTS cell viability, VP-MCC cell lines as a group (mean AUC, VP.MCC.avg); format: cell-based, human
[3] = tested on: VN-MCC cell lines (MCC13, MCC26, UISO); test: qHTS cell viability, VN-MCC cell lines as a group (mean AUC, VN.MCC.avg); format: cell-based, human
[4] = tested on: control cell lines (HACAT, HEK293T, CRL-7250, NIH-3T3); test: qHTS cell viability, control cell lines as a group (mean AUC, Control.avg); format: cell-based
[5] = tested on: six MCC cell lines and four control cell lines; test: qHTS cell viability, all 10 cell lines screened; format: cell-based
[6] = NPC library, 8-point DRC, area under dose-response curve
[7] = NPC library, 8-point DRC, control cell line

With CCOc1cc(N2CCC(O)CC2)ccc1Nc1ncc2c(n1)N(C)c1ccccc1C(=O)N2C [XMD8-92] the MCC13_AUC (MCC13 cells (VN-MCC)) was 476.46, the MCC26_AUC (MCC26 cells (VN-MCC)) was 462.249 and the UISO_AUC (UISO cells (VN-MCC)) was 455.545. The WAGA_AUC (WAGA cells (VP-MCC)) was 403.248, the MKL1_AUC (MKL-1 cells (VP-MCC)) was 404.412 and the MKL2_AUC (MKL-2 cells (VP-MCC)) was 364.829. For the same compound, the HACAT_AUC (HACAT cells) was 464.723, the HEK293T_AUC (HEK293T cells) was 449.91 and the NIH3T3_AUC (NIH-3T3 cells) was 462.049. For the same compound, the CRL7250_AUC (CRL-7250 cells) was 459.588, the MCC_Avg_AUC [1] was 427.79 and the Control-VP-MCC [2] was 68.2382. It also gave a VP-MCC_Avg_AUC [2] of 390.829, a Control-VN-MCC [3] of -5.684 and a VN-MCC_Avg_AUC [3] of 464.751. It also gave a Control_Avg_AUC [4] of 459.068 and a Control-MCC [5] of 31.2771.
With N[C@@H](Cc1ccc(N(CCCl)CCCl)cc1)C(=O)O [Melphalan] the MCC13_AUC (MCC13 cells (VN-MCC)) was 467.949, the MCC26_AUC (MCC26 cells (VN-MCC)) was 465.715 and the UISO_AUC (UISO cells (VN-MCC)) was 405.245. For the same compound, the WAGA_AUC (WAGA cells (VP-MCC)) was 417.577, the MKL1_AUC (MKL-1 cells (VP-MCC)) was 386.049 and the MKL2_AUC (MKL-2 cells (VP-MCC)) was 377.097. For the same compound, the HACAT_AUC (HACAT cells) was 448.936, the HEK293T_AUC (HEK293T cells) was 460.279 and the NIH3T3_AUC (NIH-3T3 cells) was 465.754. It also gave a CRL7250_AUC (CRL-7250 cells) of 448.797, an MCC_Avg_AUC [1] of 419.939 and a Control-VP-MCC [2] of 62.3672. For the same compound, the VP-MCC_Avg_AUC [2] was 393.574, the Control-VN-MCC [3] was 9.639 and the VN-MCC_Avg_AUC [3] was 446.303. It also gave a Control_Avg_AUC [4] of 455.942 and a Control-MCC [5] of 36.0029.
For CSc1ccc2c(c1)N(CCC1CCCCN1C)c1ccccc1S2 (stereo not shown) [Thioridazine], the MCC13_AUC (MCC13 cells (VN-MCC); [6]) was 405.187, the MCC13_AUC (MCC13 cells (VN-MCC); NPC library, qHTS dose-response AUC, MCC13) was 405.187 and the MCC13_AUC (MCC13 cells (VN-MCC); area under the dose-response curve, MCC13 cells, AUC<450 = reduced viability) was 405.187. The MCC26_AUC (MCC26 cells (VN-MCC); [6]) was 403.828, the MCC26_AUC (MCC26 cells (VN-MCC); NPC library, qHTS dose-response AUC, MCC26) was 403.828 and the MCC26_AUC (MCC26 cells (VN-MCC); area under the dose-response curve, MCC26 cells, AUC<450 = reduced viability) was 403.828. The UISO_AUC (UISO cells (VN-MCC); [6]) was 400.342, the UISO_AUC (UISO cells (VN-MCC); NPC library, qHTS dose-response AUC, UISO) was 400.342 and the UISO_AUC (UISO cells (VN-MCC); area under the dose-response curve, UISO cells, AUC<450 = reduced viability) was 400.342. For the same compound, the WAGA_AUC (WAGA cells (VP-MCC); [6]) was 416.169, the WAGA_AUC (WAGA cells (VP-MCC); NPC library, qHTS dose-response AUC, WAGA) was 416.169 and the WAGA_AUC (WAGA cells (VP-MCC); area under the dose-response curve, WAGA cells, AUC<450 = reduced viability) was 416.169. For the same compound, the MKL1_AUC (MKL-1 cells (VP-MCC); [6]) was 412.834, the MKL1_AUC (MKL-1 cells (VP-MCC); NPC library, qHTS dose-response AUC, MKL1) was 412.834 and the MKL1_AUC (MKL-1 cells (VP-MCC); area under the dose-response curve, MKL-1 cells, AUC<450 = reduced viability) was 412.834. The MKL2_AUC (MKL-2 cells (VP-MCC); [6]) was 356.973, the MKL2_AUC (MKL-2 cells (VP-MCC); NPC library, qHTS dose-response AUC, MKL2) was 356.974 and the MKL2_AUC (MKL-2 cells (VP-MCC); area under the dose-response curve, MKL-2 cells, AUC<450 = reduced viability) was 356.974. The HACAT_AUC (HACAT cells; [7]) was 453.674, the HACAT_AUC (HACAT cells; NPC library, qHTS dose-response AUC, HACAT control) was 453.674 and the HACAT_AUC (HACAT cells; area under the dose-response curve, HACAT control cells, AUC<450 = reduced viability) was 453.674. The HEK293T_AUC (HEK293T cells; [7]) was 452.051, the HEK293T_AUC (HEK293T cells; NPC library, qHTS dose-response AUC, HEK293T control) was 452.051 and the HEK293T_AUC (HEK293T cells; area under the dose-response curve, HEK293T control cells, AUC<450 = reduced viability) was 452.051. It also gave an NIH3T3_AUC (NIH-3T3 cells; [7]) of 457.937, an NIH3T3_AUC (NIH-3T3 cells; NPC library, qHTS dose-response AUC, NIH3T3 control) of 457.938 and an NIH3T3_AUC (NIH-3T3 cells; area under the dose-response curve, NIH3T3 control cells, AUC<450 = reduced viability) of 457.938. For the same compound, the CRL7250_AUC (CRL-7250 cells; [7]) was 474.374, the CRL7250_AUC (CRL-7250 cells; NPC library, qHTS dose-response AUC, CRL7250 control) was 474.374 and the CRL7250_AUC (CRL-7250 cells; area under the dose-response curve, CRL7250 control cells, AUC<450 = reduced viability) was 474.374. It also gave an MCC_Avg_AUC ([1]; NPC library, mean AUC of all 6 MCC cell lines) of 399.222, an MCC_Avg_AUC ([1]; NPC library, mean AUC of six MCC cell lines) of 399.222 and a Control-VP-MCC ([2]; Control AUC minus VP-MCC AUC) of 64.1836. It also gave a Control-VP-MCC ([2]; NPC library, Control AUC minus VP-MCC AUC (therapeutic window)) of 64.1836, a Control-VN-MCC ([3]; Control AUC minus VN-MCC AUC) of 56.3901 and a Control-VN-MCC ([3]; NPC library, Control AUC minus VN-MCC AUC (therapeutic window)) of 56.3901. It also gave a VN-MCC_Avg_AUC ([3]; NPC library, mean AUC of VN-MCC cell lines) of 403.119, a Control_Avg_AUC ([4]; NPC library, mean AUC of control cell lines) of 459.509 and a Control-MCC ([5]; NPC library, Control AUC minus MCC AUC (therapeutic window)) of 60.2868.
